Results on 26 compounds are retold here after patent US10538497B2, “Compounds as indoleamine 2,3-dioxygenase inhibitors” (Merck Sharp & Dohme Corp., priority 2015, dated 2020).

One may read the IC50 as the concentration that gives 50% inhibition.

A value given as a limit tells only on which side of the number the result lay.

Assay [1] deals with T1, IDO1 (Homo sapiens (Human), UniProt P14902). The assay is described as follows: IDO1 Cellular Assay in Frozen HEK293 Cells Transiently Transfected with Human IDO1. The format is cell-based. As to conditions: HEK293 cells transiently transfected with human IDO1; read-out: IDO1 HEK293 Cell Assay, IC50.
For assay [2], the target named is T1, IDO1. The assay is described as follows: IDO1 Cellular Assay in Hela Cells Stimulated with IFNγ. The class given is cell-based. As to conditions: Hela cells stimulated with IFNγ 100 ng/mL; read-out: IDO1 HELA Cell Assay, IC50.
Assay [3] addresses T1, IDO1. The assay is described as follows: IDO1 Enzyme Assay. As to conditions: HIS-tagged recombinant IDO1, 40 nM.
Where [4] appears, read: read-out: IDO1 Enzyme Assay, IC50.

T1 sequence (P14902 whole entry): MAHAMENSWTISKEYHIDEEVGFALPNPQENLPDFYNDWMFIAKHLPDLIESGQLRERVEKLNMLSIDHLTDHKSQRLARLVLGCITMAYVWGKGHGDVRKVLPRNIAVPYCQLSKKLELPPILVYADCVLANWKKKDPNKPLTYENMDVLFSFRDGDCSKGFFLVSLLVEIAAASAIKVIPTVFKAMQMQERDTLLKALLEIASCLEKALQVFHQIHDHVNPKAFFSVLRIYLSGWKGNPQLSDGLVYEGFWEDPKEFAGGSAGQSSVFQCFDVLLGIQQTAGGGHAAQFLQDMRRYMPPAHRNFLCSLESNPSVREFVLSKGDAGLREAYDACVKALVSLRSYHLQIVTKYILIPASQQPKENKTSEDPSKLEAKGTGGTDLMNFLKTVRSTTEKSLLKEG

`Cn1ccnc1CSc1nonc1C(=NO)Nc1ccc(F)c(Br)c1` [Example 153, N-(3-bromo-4-fluorophenyl)-N′-hydroxy-4-{[(1-methyl-1H-imidazol-2-yl)methyl]sulfanyl}-1,2,5-oxadiazole-3-carboximidamide]: the IC50 on IDO1 [1] is 0.0657 µM; on IDO1 [2], 0.0694 µM; at IDO1 [3] (IDO1 Enzyme Assay, IC50, nM) it was 85.4 nM.

In the case of `O=C(CCSc1nonc1/C(=N/O)Nc1ccc(F)c(Br)c1)NCCO` [Example 107, 3-({4-[N-(3-bromo-4-fluorophenyl)-N′-hydroxycarbamimidoyl]-1,2,5-oxadiazol-3-yl}sulfanyl)-N-(2-hydroxyethyl)propanamide], the IC50 is 0.0431 µM on IDO1 [1], 0.0483 µM on IDO1 [2] and 30.1 nM on IDO1 [3] (setting [4]).

`NC(CCSc1nonc1/C(=N/O)Nc1ccc(F)c(Br)c1)C(=O)O` (stereo not drawn) [Example 57, S-{4-[N-(3-bromo-4-fluorophenyl)-N′-hydroxycarbamimidoyl]-1,2,5-oxadiazol-3-yl}homocysteine]: the IC50 is 0.361 µM at IDO1 [1], 0.131 µM at IDO1 [2] and 29.4 nM on IDO1 [3] (setting [4]).

For the compound `N#Cc1cc(N/C(=N\O)c2nonc2SCC(=O)NC2COC2)ccc1F` [Example 186, 2-({4-[N-(3-cyano-4-fluorophenyl)-N′-hydroxycarbamimidoyl]-1,2,5-oxadiazol-3-yl}sulfanyl)-N-oxetan-3-ylacetamide], the IC50 was found to be 0.412 µM on IDO1 [1], 0.322 µM at IDO1 [2] and 180 nM on IDO1 [3] (setting [4]).

With `OCC(O)CSc1nonc1/C(=N/O)Nc1ccc(F)c(Br)c1` (single isomer, unassigned) [Example 64, N-(3-bromo-4-fluorophenyl)-4-[(2,3-dihydroxypropyl)sulfanyl]-N′-hydroxy-1,2,5-oxadiazole-3-carboximidamide], the IC50 on IDO1 [1] came out at 0.0759 µM; on IDO1 [2], 0.0441 µM; at IDO1 [3] (IDO1 Enzyme Assay, IC50, nM), 49.1 nM.

Take `COCCNP(=O)(CCSc1nonc1/C(=N/O)Nc1ccc(F)c(Br)c1)NCCOC` [Example 100, 4-[(2-{bis[(2-methoxyethyl)amino]phosphoryl}ethyl)sulfanyl]-N-(3-bromo-4-fluorophenyl)-N′-hydroxy-1,2,5-oxadiaxole-3-carboximidamide]: the IC50 on IDO1 [1] turned out to be 0.582 µM; at IDO1 [2], 0.342 µM; at IDO1 [3] (setting [4]), 98.8 nM.

Turning to `CN/C(=C\[N+](=O)[O-])NCCSc1nonc1C(=NO)Nc1ccc(F)c(Br)c1` [Example 60, N-(3-bromo-4-fluorophenyl)-N′-hydroxy-4-[(2-{[(E)-1-(methylamino)-2-nitroethenyl]amino}ethyl)sulfanyl]-1,2,5-oxadiazole-3-carboximidamide], the IC50 was 0.176 µM on IDO1 [1], 0.153 µM at IDO1 [2] and 36.5 nM at IDO1 [3] (setting [4]).

Consider `CS(=O)(=O)NCCSc1nonc1/C(=N/O)Nc1ccc(F)c(Cl)c1` [Example 184, N-(3-chloro-4-fluorophenyl)-N′-hydroxy-4-({2-[(methylsulfonyl)amino]ethyl}sulfanyl)-1,2,5-oxadiazole-3-carboximidamide], for which the IC50 came to 0.0161 µM on IDO1 [1], 0.0474 µM on IDO1 [2] and 50.9 nM at IDO1 [3] (setting [4]).

Consider `NC(=O)CSc1nonc1/C(=N/O)Nc1ccc(F)c(Br)c1` [Example 77, 2-({4-[N-(3-bromo-4-fluorophenyl)-N′-hydroxycarbamimidoyl]-1,2,5-oxadiazol-3-yl}sulfanyl)acetamide], for which the IC50 stood at 0.0364 µM at IDO1 [1], 0.0435 µM on IDO1 [2] and 51.8 nM on IDO1 [3] (setting [4]).

As for `CCSc1nonc1/C(=N/O)Nc1ccc(F)c(Br)c1` [Example 24, (Z)-N-(3-bromo-4-fluorophenyl)-4-(ethylthio)-N′-hydroxy-1,2,5-oxadiazole-3-carboximidamide], the IC50 on IDO1 [1] was 0.133 µM; at IDO1 [2] it was 0.0628 µM; at IDO1 [3] (setting [4]) it was 154 nM.

For `CN1C(=O)NC[C@H]1CSc1nonc1/C(=N/O)Nc1ccc(F)c(Br)c1` [Example 121, N-(3-bromo-4-fluorophenyl)-N′-hydroxy-4-({[(4S)-3-methyl-2-oxoimidazolidin-4-yl]methyl}sulfanyl)-1,2,5-oxadiazole-3-carboximidamide], the IC50 on IDO1 [1] amounted to 0.0458 µM; at IDO1 [2] it was 0.0397 µM; on IDO1 [3] (setting [4]), 47.7 nM.

In the case of `N#CCSc1nonc1/C(=N/O)Nc1ccc(F)c(Br)c1` [Example 67, N-(3-bromo-4-fluorophenyl)-4-[(cyanomethyl)sulfanyl]-N′-hydroxy-1,2,5-oxadiazole-3-carboximidamide], the IC50 on IDO1 [1] was 0.0177 µM; at IDO1 [2] it was 0.0145 µM; at IDO1 [3] (setting [4]), 39.3 nM.

On to `COCCNC(=O)CCSc1nonc1/C(=N/O)Nc1ccc(F)c(Br)c1` [Example 106, 3-({4-[N-(3-bromo-4-fluorophenyl)-N′-hydroxycarbamimidoyl]-1,2,5-oxadiazol-3-yl}sulfanyl)-N-(2-methoxyethyl)propanamide], for which the IC50 worked out at 0.0787 µM at IDO1 [1], 0.558 µM on IDO1 [2] and 30 nM on IDO1 [3] (setting [4]).

With `O=C(NCCSc1nonc1C(=NO)Nc1ccc(F)c(Br)c1)NCC1CCOCC1` [Example 130, N-(3-bromo-4-fluorophenyl)-N′-hydroxy-4-[(2-{[(tetrahydro-2H-pyran-4-ylmethyl)carbamoyl]amino}ethyl)sulfanyl]-1,2,5-oxadiaxole-3-carboximidamide], the IC50 at IDO1 [1] came to 0.206 µM; on IDO1 [2], 0.371 µM; on IDO1 [3] (setting [4]), 37 nM.

`ON=C(Nc1ccc(F)c(Br)c1)c1nonc1SCCn1ccnc1` [Example 172, N-(3-bromo-4-fluorophenyl)-N′-hydroxy-4-{[2-(1H-imidazol-1-yl)ethyl]sulfanyl}-1,2,5-oxadiazole-3-carboximidamide]: the IC50 at IDO1 [1] amounted to 0.0475 µM; on IDO1 [2], 0.0434 µM; on IDO1 [3] (IDO1 Enzyme Assay, IC50, nM), 78.6 nM.

Regarding `OC[C@H](O)CSc1nonc1/C(=N/O)Nc1ccc(F)c(C(F)F)c1` [Example 167, N-[3-(difluoromethyl)-4-fluorophenyl]-4-{[(2S)-2,3-dihydroxypropyl]sulfanyl}-N′-hydroxy-1,2,5-oxadiazole-3-carboximidamide], the IC50 worked out at 0.11 µM on IDO1 [1], 0.0973 µM on IDO1 [2] and 142 nM on IDO1 [3] (setting [4]).

Take `ON=C(Nc1ccc(F)c(Br)c1)c1nonc1SCC1CCOCC1` [Example 162, N-(3-bromo-4-fluorophenyl)-N′-hydroxy-4-[(tetrahydro-2H-pyran-4-ylmethyl)sulfanyl]-1,2,5-oxadiazole-3-carboximidamide]: the IC50 on IDO1 [1] came out at 0.167 µM; at IDO1 [2], 0.322 µM; on IDO1 [3] (IDO1 Enzyme Assay, IC50, nM), 111 nM.

Regarding `N#CC1(CSc2nonc2/C(=N/O)Nc2ccc(F)c(Br)c2)CC1` [Example 68, N-(3-bromo-4-fluorophenvl)-4-{[(1-cyanocyclopropyl)methyl]sulfanyl}-N′-hydroxy-1,2,5-oxadiazole-3-carboximidamide], the figures for the IC50 at IDO1 [1], at IDO1 [2] and on IDO1 [3] (setting [4]) were 0.107 µM, 0.0772 µM and 96.2 nM, respectively.

With `CN1CCN(CCSc2nonc2C(=NO)Nc2ccc(F)c(Br)c2)CC1` [Example 164, N-(3-bromo-4-fluorophenyl)-N′-hydroxy-4-{[2-(4-methvlpiperazin-1-yl)ethyl]sulfanyl}-1,2,5-oxadiazole-3-carboximidamide], the IC50 at IDO1 [1] worked out at 0.0915 µM; on IDO1 [2], 0.246 µM; at IDO1 [3] (setting [4]) it was 62.2 nM.

In the case of `O=c1c(NCCSc2nonc2/C(=N/O)Nc2ccc(F)c(Br)c2)c(N2CCOCC2)c1=O` [Example 91, N-(3-bromo-4-fluorophenyl)-N′-hydroxy-4-({2-[(2-morpholin-4-yl-3,4-dioxocyclobut-1-en-1-yl)amino]ethyl}sulfanyl)-1,2,5-oxadiazole-3-carboximidamide], the IC50 at IDO1 [1] is 0.367 µM; at IDO1 [2], 0.357 µM; on IDO1 [3] (setting [4]), 57.4 nM.

For the compound `ON=C(Nc1ccc(F)c(Br)c1)c1nonc1SCc1ncon1` [Example 156, N-(3-bromo-4-fluorophenyl)-N′-hydroxy-4-[(1,2,4-oxadiazol-3-ylmethyl)sulfanyl]-1,2,5-oxadiazole-3-carboximidamide], the IC50 at IDO1 [1] is 0.0469 µM; at IDO1 [2], 0.114 µM; at IDO1 [3] (IDO1 Enzyme Assay, IC50, nM), 58.8 nM.

Consider `O=C(O)CSc1nonc1/C(=N/O)Nc1ccc(F)c(Br)c1` [Example 15, (Z)-2-((4-(N-(3-bromo-4-fluorophenyl)-N′-hydroxycarbamimidoyl)-1,2,5-oxadiazol-3-yl)thio)acetic acid], for which the half-inhibitory concentration (IC50) at IDO1 [1] was above 10 µM; on IDO1 [2] it was above 10 µM; at IDO1 [3] (setting [4]), 105 nM.

For `N#CC12CC(CSc3nonc3/C(=N/O)Nc3ccc(F)c(Br)c3)(C1)C2` [Example 80, N-(3-bromo-4-fluorophenyl)-4-{[(3-cyanobicyclo[1.1.1]pent-1-yl)methyl]sulfanyl}-N′-hydroxy-1,2,5-oxadiazole-3-carboximidamide], the figures for the IC50 at IDO1 [1], on IDO1 [2] and on IDO1 [3] (setting [4]) were 0.0781 µM, 0.0379 µM and 125 nM, respectively.

For `NC(=O)CCSc1nonc1/C(=N/O)Nc1ccc(F)c(Br)c1` [Example 96, 3-({4-[N-(3-bromo-4-fluorophenyl)-N′-hydroxycarbamimidoyl]-1,2,5-oxadiazol-3-yl}sulfanyl)propanamide], the figures for the IC50 at IDO1 [1], at IDO1 [2] and on IDO1 [3] (setting [4]) were 0.0329 µM, 0.0247 µM and 36.9 nM, respectively.

Turning to `CC(=O)NCCSc1nonc1/C(=N/O)Nc1ccc(F)c(C(F)F)c1` [Example 142, N-{2-[(4-{N-[3-(difluoromethyl)-4-fluorophenyl]-N′-hydroxycarbamimidoyl}-1,2,5-oxadiazol-3-yl)sulfanyl]ethyl}acetamide], the IC50 on IDO1 [1] worked out at 0.0469 µM; on IDO1 [2] it was 0.0572 µM; on IDO1 [3] (setting [4]) it was 54 nM.

For the compound `ON=C(Nc1ccc(F)c(Br)c1)c1nonc1SCc1c[nH]cn1` [Example 159, N-(3-bromo-4-fluorophenyl)-N′-hydroxy-4-[(1H-imidazol-4-ylmethyl)sulfanyl]-1,2,5-oxadiazole-3-carboximidamide], the IC50 at IDO1 [1] was determined as 0.0817 µM; at IDO1 [2], 0.153 µM; on IDO1 [3] (IDO1 Enzyme Assay, IC50, nM), 105 nM.
